Measured values from the Kinase Knowledgebase extract (Sharma et al. 2016).

Legend:
[1] = target: EGFR (human), P00533 [Inhibition of EGFR(L858RT/790M) Kinase Activity]
[2] = target: EGFR (human), P00533 [WT]
EGFR (human) = EGFR (human) (UniProt P00533); details: hcc827
Sequence of EGFR (human) (P00533 whole entry, looked up): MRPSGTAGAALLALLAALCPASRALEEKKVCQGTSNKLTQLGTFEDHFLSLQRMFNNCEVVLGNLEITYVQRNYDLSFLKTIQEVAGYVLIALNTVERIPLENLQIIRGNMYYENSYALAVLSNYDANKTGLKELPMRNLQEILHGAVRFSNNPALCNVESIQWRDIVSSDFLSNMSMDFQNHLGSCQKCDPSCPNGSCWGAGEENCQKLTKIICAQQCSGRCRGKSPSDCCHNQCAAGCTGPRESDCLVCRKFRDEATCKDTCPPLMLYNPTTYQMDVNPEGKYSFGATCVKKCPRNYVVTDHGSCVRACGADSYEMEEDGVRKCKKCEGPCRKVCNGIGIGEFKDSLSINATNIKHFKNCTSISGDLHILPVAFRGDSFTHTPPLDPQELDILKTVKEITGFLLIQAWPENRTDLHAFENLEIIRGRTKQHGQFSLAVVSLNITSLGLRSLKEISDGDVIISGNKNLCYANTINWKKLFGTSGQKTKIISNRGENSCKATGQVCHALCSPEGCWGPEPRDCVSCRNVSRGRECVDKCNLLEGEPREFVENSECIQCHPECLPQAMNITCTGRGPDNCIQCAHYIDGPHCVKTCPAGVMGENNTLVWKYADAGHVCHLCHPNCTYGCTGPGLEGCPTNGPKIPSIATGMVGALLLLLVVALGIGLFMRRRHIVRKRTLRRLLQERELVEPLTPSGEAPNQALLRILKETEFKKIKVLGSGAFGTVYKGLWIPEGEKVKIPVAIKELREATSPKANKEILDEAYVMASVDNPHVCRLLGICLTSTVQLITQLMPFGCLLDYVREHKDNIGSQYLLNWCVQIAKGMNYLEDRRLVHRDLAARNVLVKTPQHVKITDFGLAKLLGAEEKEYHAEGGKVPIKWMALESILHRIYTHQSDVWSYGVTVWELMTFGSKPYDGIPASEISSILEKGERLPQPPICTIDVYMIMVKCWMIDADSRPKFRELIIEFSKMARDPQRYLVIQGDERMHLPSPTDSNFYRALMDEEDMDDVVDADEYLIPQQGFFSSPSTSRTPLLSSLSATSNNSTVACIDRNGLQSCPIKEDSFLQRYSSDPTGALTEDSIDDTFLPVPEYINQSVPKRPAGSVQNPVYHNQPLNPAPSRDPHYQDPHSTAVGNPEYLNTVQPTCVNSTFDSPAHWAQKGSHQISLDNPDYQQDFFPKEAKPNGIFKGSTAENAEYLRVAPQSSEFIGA

Sequence of EGFR (human), P00533 [WT] (P00533 whole entry, looked up): as above
Sequence of EGFR (human), P00533 [Inhibition of EGFR(L858RT/790M) Kinase Activity] (P00533 whole entry, looked up, change not shown): as the sequence (P00533 whole entry, looked up) above

Structure (SMILES) | IC50 [1] | IC50 [2] | IC50 (EGFR (human))
CN(C)C/C=C/C(=O)Nc1cccc(-c2c(-c3ccccc3)oc3ncnc(N[C@H](CO)c4ccccc4)c23)c1 | 10 to 499 nM | < 59 nM | 1 to 99 nM
C=CC(=O)Nc1cccc(-c2c(-c3ccccc3)oc3ncnc(N[C@H](C)c4ccccc4)c23)c1 | 500 to 2500 nM | 101 to 900 nM | 1 to 99 nM
CN(C)C/C=C/C(=O)N1CCc2c(sc3ncnc(N[C@H](CO)c4ccccc4)c23)C1 | 10 to 499 nM | < 59 nM | 1 to 99 nM
CN(C)C/C=C/C(=O)N1CCc2c(sc3ncnc(Nc4ccc(F)c(Cl)c4)c23)C1 | 10 to 499 nM | < 59 nM | 1 to 99 nM
C[C@@H](Nc1ncnc2sc3c(c12)CCN(C(=O)/C=C/CN(C)C)C3)c1ccccc1 | 500 to 2500 nM | < 59 nM | 1 to 99 nM
CC#CC(=O)Nc1cccc(-c2c(-c3ccccc3)oc3ncnc(N[C@H](CO)c4ccccc4)c23)c1 | 500 to 2500 nM | < 59 nM | 1 to 99 nM
CNC/C=C/C(=O)N1CCc2c(sc3ncnc(N[C@H](C)c4ccccc4)c23)C1 | 500 to 2500 nM | < 59 nM | 1 to 99 nM
C=CS(=O)(=O)N1CCc2c(sc3ncnc(N[C@H](CO)c4ccccc4)c23)C1 | 500 to 2500 nM | 60 to 100 nM | 100 to 300 nM
CCN(CC)C/C=C/C(=O)N1CCc2c(sc3ncnc(N[C@H](CO)c4ccccc4)c23)C1 | 500 to 2500 nM | < 59 nM | 1 to 99 nM
CC[C@@H](Nc1ncnc2sc3c(c12)CCN(C(=O)/C=C/CN(CC)CC)C3)c1ccccc1 | 500 to 2500 nM | < 59 nM | 1 to 99 nM
CN1CCN(C/C=C/C(=O)N2CCc3c(sc4ncnc(N[C@H](CO)c5ccccc5)c34)C2)CC1 | 500 to 2500 nM | < 59 nM | 1 to 99 nM
O=C(/C=C/CN1CCCCC1)N1CCc2c(sc3ncnc(N[C@H](CO)c4ccccc4)c23)C1 | 500 to 2500 nM | < 59 nM | 1 to 99 nM
C[C@@H](Nc1ncnc2sc3c(c12)CCN(C(=O)/C=C/CN(CCO)CCO)C3)c1ccccc1 | 500 to 2500 nM | < 59 nM | 1 to 99 nM
C[C@@H](Nc1ncnc2sc3c(c12)CCN(C(=O)/C=C/CNC1CC1)C3)c1ccccc1 | 500 to 2500 nM | < 59 nM | 1 to 99 nM

Now from value to molecule:

IC50 [1] | IC50 [2] | IC50 (EGFR (human)) | Structure (SMILES)
500 to 2500 nM | < 59 nM | 1 to 99 nM | COc1cccc(COC[C@@H](Nc2ncnc3sc4c(c23)CCN(C(=O)/C=C/CN(C)C)C4)c2ccccc2)c1
500 to 2500 nM | < 59 nM | 1 to 99 nM | CN(C)C/C=C/C(=O)N1CCc2c(sc3ncnc(N[C@H](COCc4ccccn4)c4ccccc4)c23)C1
500 to 2500 nM | < 59 nM | 1 to 99 nM | CN(C)C/C=C/C(=O)N1CCc2c(sc3ncnc(N[C@H](COCc4ccccc4F)c4ccccc4)c23)C1
500 to 2500 nM | < 59 nM | 1 to 99 nM | C=CC(=O)N1CCc2c(sc3ncnc(N[C@H](CC)c4ccccc4)c23)C1
500 to 2500 nM | < 59 nM | 1 to 99 nM | C=CC(=O)N1CCc2c(sc3ncnc(N[C@H](C)c4ccccc4)c23)C1
10 to 499 nM | < 59 nM | 1 to 99 nM | C=CC(=O)N1CCc2c(sc3ncnc(N[C@H](COCc4cccc(F)c4)c4ccccc4)c23)C1
10 to 499 nM | < 59 nM | 1 to 99 nM | C=CC(=O)N1CCc2c(sc3ncnc(N[C@H](COC)c4ccccc4)c23)C1
10 to 499 nM | < 59 nM | 1 to 99 nM | C=CC(=O)N1CCc2c(sc3ncnc(N[C@H](COCc4cccc(C)c4)c4ccccc4)c23)C1
10 to 499 nM | < 59 nM | 1 to 99 nM | C=CC(=O)N1CCc2c(sc3ncnc(N[C@H](COCc4ccccc4)c4ccccc4)c23)C1
10 to 499 nM | < 59 nM | 1 to 99 nM | C=CC(=O)N1CCc2c(sc3ncnc(N[C@H](COCc4cccc(OC)c4)c4ccccc4)c23)C1
10 to 499 nM | < 59 nM | 100 to 300 nM | C=CC(=O)N1CCc2c(sc3ncnc(N[C@H](COCc4ccc(C(F)(F)F)cc4)c4ccccc4)c23)C1
